Assay results taken from PubChem BioAssay AID1963853 (Molecular Pharmacology Branch, DTP, NCI, 2024).

Tested on: 266295-075-R-J1-PDC spheroid viability
Assay: Anticancer human tumor 266295-075-R-J1-PDC patient-derived head and neck squamous carcinoma cell line growth inhibition [POLQ]
Conditions: spheroids with HUVEC and MSC; for IC50: curve of first compound; for viability, T/C: stronger effect = lower value
Outline: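 Patient-derived tumour cells were co-cultured with HUVEC and mesenchymal stem cells as multicellular spheroids at 37 °C. They were treated with POLQ inhibitors (novobiocin, ART-558, RP6685) alone or combined with other agents. Top concentrations were at or near clinical Cmax (otherwise 10 microM; SN-38 at 1 microM), decreasing in half-log steps.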

[1] = second compound 0.0316 µM, first compound 0.0316 µM
[2] = second compound 0.0316 µM, first compound 0.1 µM
[3] = second compound 0.0316 µM, first compound 0.316 µM
[4] = second compound 0.0316 µM, first compound 1 µM
[5] = second compound 0.0316 µM, first compound 3.16 µM
[6] = second compound 0.0316 µM, first compound 10 µM
[7] = second compound 0.1 µM, first compound 0.0316 µM
[8] = second compound 0.1 µM, first compound 0.1 µM
[9] = second compound 0.1 µM, first compound 0.316 µM
[10] = second compound 0.1 µM, first compound 1 µM
[11] = second compound 0.1 µM, first compound 3.16 µM
[12] = second compound 0.1 µM, first compound 10 µM
[13] = second compound 0.316 µM, first compound 0.0316 µM
[14] = second compound 0.316 µM, first compound 0.1 µM
[15] = second compound 0.316 µM, first compound 0.316 µM
[16] = second compound 0.316 µM, first compound 1 µM
[17] = second compound 0.316 µM, first compound 3.16 µM
[18] = second compound 0.316 µM, first compound 10 µM
[19] = second compound 1 µM, first compound 0.0316 µM
[20] = second compound 1 µM, first compound 0.1 µM
[21] = second compound 1 µM, first compound 0.316 µM
[22] = second compound 1 µM, first compound 1 µM
[23] = second compound 1 µM, first compound 3.16 µM
[24] = second compound 1 µM, first compound 10 µM
[25] = second compound 3.16 µM, first compound 0.0316 µM
[26] = second compound 3.16 µM, first compound 0.1 µM
[27] = second compound 3.16 µM, first compound 0.316 µM
[28] = second compound 3.16 µM, first compound 1 µM
[29] = second compound 3.16 µM, first compound 3.16 µM
[30] = second compound 3.16 µM, first compound 10 µM
[31] = second compound 10 µM, first compound 0.0316 µM
[32] = second compound 10 µM, first compound 0.1 µM
[33] = second compound 10 µM, first compound 0.316 µM
[34] = second compound 10 µM, first compound 1 µM
[35] = second compound 10 µM, first compound 3.16 µM
[36] = second compound 10 µM, first compound 10 µM
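Also: spheroids exposed to compounds for seven days before readout.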

## CC1COCCN1c1cc(C2(S(C)(=N)=O)CC2)nc(-c2ccnc3[nH]ccc23)n1 (stereo unspecified) + COC1C(OC(N)=O)C(O)C(Oc2ccc3c(O)c(NC(=O)c4ccc(O)c(CC=C(C)C)c4)c(=O)oc3c2C)OC1(C)C
Second compound 0.0316 µM
  IC50: > 10 µM
Second compound 0.1 µM
  IC50: > 10 µM
Second compound 0.316 µM
  IC50: > 10 µM
Second compound 1 µM
  IC50: > 10 µM
Second compound 3.16 µM
  IC50: > 10 µM
Second compound 10 µM
  IC50: > 10 µM
[1]
  viability, T/C: 101%
[2]
  viability, T/C: 82.5%
[3]
  viability, T/C: 105%
[4]
  viability, T/C: 77.9%
[5]
  viability, T/C: 74.9%
[6]
  viability, T/C: 56.8%
[7]
  viability, T/C: 82.6%
[8]
  viability, T/C: 87.9%
[9]
  viability, T/C: 89.6%
[10]
  viability, T/C: 87.9%
[11]
  viability, T/C: 82.7%
[12]
  viability, T/C: 63.5%
[13]
  viability, T/C: 89.2%
[14]
  viability, T/C: 86.8%
[15]
  viability, T/C: 101%
[16]
  viability, T/C: 81.1%
[17]
  viability, T/C: 94.7%
[18]
  viability, T/C: 52.2%
[19]
  viability, T/C: 95.4%
[20]
  viability, T/C: 105%
[21]
  viability, T/C: 95.2%
[22]
  viability, T/C: 92.7%
[23]
  viability, T/C: 78.2%
[24]
  viability, T/C: 62.2%
[25]
  viability, T/C: 105%
[26]
  viability, T/C: 93.6%
[27]
  viability, T/C: 91.9%
[28]
  viability, T/C: 81.9%
[29]
  viability, T/C: 79.1%
[30]
  viability, T/C: 63.1%
[31]
  viability, T/C: 92.4%
[32]
  viability, T/C: 105%
[33]
  viability, T/C: 88.9%
[34]
  viability, T/C: 72.5%
[35]
  viability, T/C: 68.8%
[36]
  viability, T/C: 56.1%

## COc1ccc([C@@H](O)c2cc(-c3ncnc4cc(N5CCOCC5)ccc34)c(F)cc2Cl)nn1 + COC1C(OC(N)=O)C(O)C(Oc2ccc3c(O)c(NC(=O)c4ccc(O)c(CC=C(C)C)c4)c(=O)oc3c2C)OC1(C)C
Second compound 0.0316 µM
  IC50: 3.45 µM
Second compound 0.1 µM
  IC50: 4.06 µM
Second compound 0.316 µM
  IC50: 4.31 µM
Second compound 1 µM
  IC50: 3.67 µM
Second compound 3.16 µM
  IC50: 2.48 µM
Second compound 10 µM
  IC50: 2.74 µM
[1]
  viability, T/C: 97.3%
[2]
  viability, T/C: 84.5%
[3]
  viability, T/C: 76.6%
[4]
  viability, T/C: 62.7%
[5]
  viability, T/C: 49.9%
[6]
  viability, T/C: 40.7%
[7]
  viability, T/C: 107%
[8]
  viability, T/C: 105%
[9]
  viability, T/C: 73.1%
[10]
  viability, T/C: 74.5%
[11]
  viability, T/C: 47.5%
[12]
  viability, T/C: 43.7%
[13]
  viability, T/C: 104%
[14]
  viability, T/C: 85.9%
[15]
  viability, T/C: 75.2%
[16]
  viability, T/C: 64.7%
[17]
  viability, T/C: 51.8%
[18]
  viability, T/C: 43.4%
[19]
  viability, T/C: 91.1%
[20]
  viability, T/C: 96%
[21]
  viability, T/C: 68.2%
[22]
  viability, T/C: 73.6%
[23]
  viability, T/C: 48.2%
[24]
  viability, T/C: 39.8%
[25]
  viability, T/C: 95.9%
[26]
  viability, T/C: 84.6%
[27]
  viability, T/C: 83.2%
[28]
  viability, T/C: 62.2%
[29]
  viability, T/C: 46%
[30]
  viability, T/C: 40.2%
[31]
  viability, T/C: 112%
[32]
  viability, T/C: 75%
[33]
  viability, T/C: 75.2%
[34]
  viability, T/C: 63%
[35]
  viability, T/C: 50.9%
[36]
  viability, T/C: 37.3%

## Cn1ncnc1[C@H]1c2n[nH]c(=O)c3cc(F)cc(c23)N[C@@H]1c1ccc(F)cc1 + COC1C(OC(N)=O)C(O)C(Oc2ccc3c(O)c(NC(=O)c4ccc(O)c(CC=C(C)C)c4)c(=O)oc3c2C)OC1(C)C
Second compound 0.0316 µM
  IC50: > 0.1 µM
Second compound 0.1 µM
  IC50: > 0.1 µM
Second compound 0.316 µM
  IC50: > 0.1 µM
Second compound 1 µM
  IC50: > 0.1 µM
Second compound 3.16 µM
  IC50: > 0.1 µM
Second compound 10 µM
  IC50: > 0.1 µM
Second compound 0.0316 µM, first compound 0.000316 µM
  viability, T/C: 85%
Second compound 0.0316 µM, first compound 0.001 µM
  viability, T/C: 97.4%
Second compound 0.0316 µM, first compound 0.00316 µM
  viability, T/C: 93%
Second compound 0.0316 µM, first compound 0.01 µM
  viability, T/C: 99.9%
[1]
  viability, T/C: 85.9%
[2]
  viability, T/C: 97.1%
Second compound 0.1 µM, first compound 0.000316 µM
  viability, T/C: 97.9%
Second compound 0.1 µM, first compound 0.001 µM
  viability, T/C: 92.7%
Second compound 0.1 µM, first compound 0.00316 µM
  viability, T/C: 70.2%
Second compound 0.1 µM, first compound 0.01 µM
  viability, T/C: 98.5%
[7]
  viability, T/C: 93.4%
[8]
  viability, T/C: 79.9%
Second compound 0.316 µM, first compound 0.000316 µM
  viability, T/C: 106%
Second compound 0.316 µM, first compound 0.001 µM
  viability, T/C: 87.5%
Second compound 0.316 µM, first compound 0.00316 µM
  viability, T/C: 97.6%
Second compound 0.316 µM, first compound 0.01 µM
  viability, T/C: 103%
[13]
  viability, T/C: 86%
[14]
  viability, T/C: 83.2%
Second compound 1 µM, first compound 0.000316 µM
  viability, T/C: 97.2%
Second compound 1 µM, first compound 0.001 µM
  viability, T/C: 86.3%
Second compound 1 µM, first compound 0.00316 µM
  viability, T/C: 88.6%
Second compound 1 µM, first compound 0.01 µM
  viability, T/C: 83.7%
[19]
  viability, T/C: 93.4%
[20]
  viability, T/C: 78.9%
Second compound 3.16 µM, first compound 0.000316 µM
  viability, T/C: 86%
Second compound 3.16 µM, first compound 0.001 µM
  viability, T/C: 106%
Second compound 3.16 µM, first compound 0.00316 µM
  viability, T/C: 87.2%
Second compound 3.16 µM, first compound 0.01 µM
  viability, T/C: 84.5%
[25]
  viability, T/C: 94.3%
[26]
  viability, T/C: 80.5%
Second compound 10 µM, first compound 0.000316 µM
  viability, T/C: 101%
Second compound 10 µM, first compound 0.001 µM
  viability, T/C: 80.8%
Second compound 10 µM, first compound 0.00316 µM
  viability, T/C: 86.9%
Second compound 10 µM, first compound 0.01 µM
  viability, T/C: 104%
[31]
  viability, T/C: 88.7%
[32]
  viability, T/C: 83.2%
